Series [1] has as its system Human coronavirus OC43. The series is described as follows: Antiviral activity against HCoV-OC43 infected in human HCT-8 cells at a MOI of 0.1 assessed as inhibition of viral replication measured after 5 days by MTS assay. It is filed as functional, organism-based. The note with it: Betacoronavirus 1, HCT-8, 120 h. Background: Formazan colour is commonly taken as a measure of viable cells.

The test system of series [2] is Human coronavirus NL63. The series is described as follows: Antiviral activity against HCoV-NL63 infected in Rhesus monkey LLC-MK2 cells at a MOI of 0.01 assessed as inhibition of viral replication measured after 120 hrs by MTS assay. The conditions noted are these: Human coronavirus NL63, LLC-MK2, 120 h. It is filed as functional, organism-based.
For series [3], the target named is Replicase polyprotein 1ab (Severe acute respiratory syndrome coronavirus 2) (UniProt P0DTD1). The series is described as follows: Inhibition of SARS-CoV-2 RdRp in HEK-293T cells at 10 uM measured after 24 hrs relative to control. It is filed as cell-based.
The nature of series [4]: Antiviral activity against SARS-CoV-2 infected in HEK293T cells assessed as inhibition of SARS-CoV-2 RdRp in the presence of coelenterazine-h incubated for 24 hrs by Gaussia luciferase reporter assay. It is filed as functional, cell-based. The conditions noted are these: Homo sapiens, HEK-293T.
Series [5] is described as follows: Cytotoxicity against HEK293T cells assessed as inhibition of cell growth measured after 48 hrs by CCK8 assay. The series is classed as toxicity, cell-based, HEK-293T. The note with it: human.
Series [6] in a line: Selectivity index, ratio of CC50 for cytotoxicity against HEK293T cells assessed as inhibition of cell growth to EC50 for antiviral activity against SARS-CoV-2 infected in HEK293T cells assessed as inhibition of SARS-CoV-2 RdRp. It is filed as toxicity, cell-based. The note with it: human, read-out: Ratio CC50/EC50.
The target of series [7] is Replicase polyprotein 1ab (Severe acute respiratory syndrome coronavirus 2) (UniProt P0DTD1). The series is described as follows: Inhibition of SARS-CoV-2 RdRp mediated RNA synthesis in HEK-293T cells cotransfected with pCoV-GLuc and pCMV6-nsp12/nsp7/nsp8 assessed as reduction in plus strand RNA level by measuring GLuc RNA level for 24 hrs in the presence of coelenterazine-h by Gaussia luciferase reporter assay. The series is classed as cell-based. The note with it: dose 2-10 µM.

For series [8] the target is unchanged. The series is described as follows: Inhibition of SARS-CoV-2 RdRp mediated RNA synthesis in HEK-293T cells cotransfected with pCoV-GLuc and pCMV6-nsp12/nsp7/nsp8 assessed as reduction in minus strand RNA level by measuring GLuc RNA level for 24 hrs in the presence of coelenterazine-h by Gaussia luciferase reporter assay. The series is classed as cell-based. The conditions noted are these: dose 2-10 µM. (Reporter assays use an easily measured gene product as a stand-in for the process of interest.)

The target is the same in series [9]. The series is described as follows: Inhibition of SARS-CoV-2 RdRp mediated RNA synthesis in HEK-293T cells cotransfected with pCoV-GLuc and pCMV6-nsp12/nsp7/nsp8 assessed as reduction in minus strand RNA level at 10 uM by measuring GLuc RNA level for 24 hrs in the presence of coelenterazine-h by Gaussia luciferase reporter assay relative to control. It is filed as cell-based.

Series [10] has as its target T1, Replicase polyprotein 1ab (Severe acute respiratory syndrome coronavirus 2, UniProt P0DTD1). The series is described as follows: Inhibition of SARS-CoV-2 nsp14 in HEK-293T cells cotransfected with pCoV-GLuc incubated for 24 hrs in the presence of coelenterazine-h by Gaussia luciferase reporter assay. It is filed as cell-based.
Series [11] deals with T1, Replicase polyprotein 1ab. The series is described as follows: Inhibition of his tagged SARS-CoV-2 nsp12 in HEK-293T cells cotransfected with pCoV-GLuc incubated for 24 hrs in the presence of coelenterazine-h by Gaussia luciferase reporter assay. It is filed as cell-based.
Series [12] addresses T1, Replicase polyprotein 1ab. The series is described as follows: Binding affinity to SARS-CoV-2 nsp12 expressed in Escherichia coli BL21 (DE3) cells using biotinylated EZ-link NHS-LC-LC assessed as dissociation constant incubated for 180 sec by BLI assay.
Series [13] addresses T1, Replicase polyprotein 1ab. The series is described as follows: Binding affinity to SARS-CoV-2 nsp12 expressed in Escherichia coli BL21 (DE3) cells using biotinylated EZ-link NHS-LC-LC assessed as dissociation constant at 6.25 to 100 uM incubated for 180 sec by BLI assay.
Series [14] in a line: Cytotoxicity against human HCT-8 cells incubated for 48 hrs by CCK8 method. The series is classed as toxicity, cell-based.
A short description of series [15]: Cytotoxicity against Rhesus monkey LLC-MK2 cells incubated for 48 hrs by method. It is filed as toxicity, cell-based, Macaca mulatta.
Series [16] concerns Human coronavirus OC43. The series is described as follows: Potency index, ratio of PAP EC50 to test compound EC50 for antiviral activity against HCoV-OC43 infected in human HCT-8 cells assessed as reduction in virus-induced cytopathic effect measured after 120 hrs by MTS assay. It is filed as functional. For orientation: Protection from cytopathic effect is a common read-out in antiviral testing.

Series [17] deals with Human coronavirus NL63. The series is described as follows: Potency index, ratio of PAP EC50 to test compound EC50 for antiviral activity against HCoV-NL63 infected in Rhesus monkey LLC-MK2 cells assessed as reduction in viru-induced cytopathic effect measured after 120 hrs by MTS assay. It is filed as functional.

Some results are limits rather than exact numbers.

For the compound `CC(C)(C)OC(=O)N1CCC[C@H]1C(=O)Nc1nc(N)ccc1/N=N/c1ccccc1`, the EC50 in [1] turned out to be 1.43 µM; in series [2] it was 2.99 µM; in series [4], 1.11 µM; in [10], 1.36 µM; in [11], 1.11 µM. The inhibition was 88.5% in series [3], “Dose-dependent-effect” in [7], “Dose-dependent-effect” in [8] and 90% in series [9]. Moreover, the CC50 at 48 h in series [5], in series [14] and in series [15] was > 100 µM each time. For the same compound, in series [6], the selectivity ratio was 6.64. Besides, the Kd result in series [12] was “Dose-dependent-effect”; in series [13], 2.41 µM. The results for the “Ratio EC50” value in series [16] and in [17] were 3.28 and 1.85, respectively.

As a reminder, the EC50 is the concentration at which the effect is half-maximal. A word on the inhibition: it is the percentage by which the read-out fell short of the control. Broadly, the CC50 is the concentration at which the toxic effect on the cells reaches its halfway point. Usually Kd stands for the concentration at which binding is half-saturated.

The record behind these values is ChEMBL document CHEMBL6109081, “Discovery and optimization of phenazopyridine hydrochloride as novel SARS-CoV-2 RdRp inhibitors” (Eur J Med Chem, 2025).
